Several values for one entry are separate records, joined by “and”; a condition that tells them apart may be missing. Equal values may be shown once. Inconclusive results and toxic doses are left out. No stated cut-off is given here; in the data, active means T/C of 150% or more; inactive means T/C below 125%.
Tested on: L1210 leukemia ip in BDF1 mice, survival T/C
Experiment: NCI In Vivo Anticancer Drug Screen. Data for tumor model L1210 Leukemia (intraperitoneal) in B6D2F1 (BDF1) mice
Settings: endpoint: mean survival time, higher = longer survival
In short: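 Tumor cells were implanted, animals were treated, and survival was followed. The result divides the treated measurement by the vehicle-control measurement.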

[1] = dose: 50.0 mg/kg/injection, schedule: Q04DX002 (ip), vehicle: saline with Tween-80
[2] = dose: 100.0 mg/kg/injection, schedule: Q04DX002 (ip), vehicle: saline with Tween-80
[3] = dose: 12.5 mg/kg/injection, schedule: Q01DX009 (ip), vehicle: saline
[4] = dose: 25.0 mg/kg/injection, schedule: Q01DX009 (ip), vehicle: saline
[5] = dose: 100.0 mg/kg/injection, schedule: Q01DX009 (ip), vehicle: Klucel (hydroxypropylcellulose) (HPC)
[6] = dose: 200.0 mg/kg/injection, schedule: Q01DX009 (ip), vehicle: Klucel (hydroxypropylcellulose) (HPC)
[7] = dose: 100.0 mg/kg/injection, schedule: Q01DX001 (ip), vehicle: carboxymethylcellulose (CMC)
[8] = dose: 200.0 mg/kg/injection, schedule: Q01DX001 (ip), vehicle: carboxymethylcellulose (CMC)
[9] = dose: 400.0 mg/kg/injection, schedule: Q01DX001 (ip), vehicle: carboxymethylcellulose (CMC)
[10] = dose: 100.0 mg/kg/injection, schedule: Q04DX003 (ip), vehicle: Klucel (hydroxypropylcellulose) (HPC)
[11] = dose: 200.0 mg/kg/injection, schedule: Q04DX003 (ip), vehicle: Klucel (hydroxypropylcellulose) (HPC)

Measured: T/C

Cc1cc2ccccc2cc1C
inactive: dose: 25.0 mg/kg/injection, schedule: Q04DX002 (ip), vehicle: other 102 % of control | dose: 25.0 mg/kg/injection, schedule: Q04DX002 (ip), vehicle: saline with Tween-80 119 % of control | [1] 101 % of control | dose: 100.0 mg/kg/injection, schedule: Q04DX002 (ip), vehicle: other 94 % of control | [2] 111 % of control

O=[N+]([O-])c1cc(Cl)c(Cl)cc1NS(=O)(=O)c1ccccc1
inactive: dose: 25.0 mg/kg/injection, schedule: Q01DX Z (ip), vehicle: carboxymethylcellulose (CMC) 101 % of control | dose: 50.0 mg/kg/injection, schedule: Q01DX Z (ip), vehicle: carboxymethylcellulose (CMC) 98 % of control | dose: 100.0 mg/kg/injection, schedule: Q01DX Z (ip), vehicle: carboxymethylcellulose (CMC) 101 % of control | dose: 200.0 mg/kg/injection, schedule: Q01DX Z (ip), vehicle: carboxymethylcellulose (CMC) 96 % of control | dose: 275.0 mg/kg/injection, schedule: Q01DX015 (ip), vehicle: carboxymethylcellulose (CMC) 90 % of control | dose: 350.0 mg/kg/injection, schedule: Q01DX015 (ip), vehicle: carboxymethylcellulose (CMC) 98 % of control | dose: 425.0 mg/kg/injection, schedule: Q01DX015 (ip), vehicle: carboxymethylcellulose (CMC) 111 % of control | dose: 700.0 mg/kg/injection, schedule: Q01DX015 (ip), vehicle: carboxymethylcellulose (CMC) 86 % of control

COc1ccc2c(c1)CCC1=C2CCC(C(=O)O)C1(C)C(=O)O (stereo not given)
inactive: dose: 100.0 mg/kg/injection, schedule: Q01DX001 (ip), vehicle: Klucel (hydroxypropylcellulose) (HPC) 97 % of control | dose: 200.0 mg/kg/injection, schedule: Q01DX001 (ip), vehicle: Klucel (hydroxypropylcellulose) (HPC) 108 % of control | dose: 400.0 mg/kg/injection, schedule: Q01DX001 (ip), vehicle: Klucel (hydroxypropylcellulose) (HPC) 92 % of control

CCOC(=O)COc1c(C(C)(C)C)cc([N+](=O)[O-])c(C)c1[N+](=O)[O-]
inactive: dose: 100.0 mg/kg/injection, schedule: Q04DX002 (ip), vehicle: Klucel (hydroxypropylcellulose) (HPC) 100 % of control | dose: 200.0 mg/kg/injection, schedule: Q04DX002 (ip), vehicle: Klucel (hydroxypropylcellulose) (HPC) 91 % of control | dose: 400.0 mg/kg/injection, schedule: Q04DX002 (ip), vehicle: Klucel (hydroxypropylcellulose) (HPC) 106 % of control

CCCCCCCCCCCCCCCCCC[N+](C)(C)C (tested in a mixture with another compound)
inactive: dose: 0.2 mg/kg/injection, schedule: Q01DX015 (ip), vehicle: saline 104 % of control | dose: 0.5 mg/kg/injection, schedule: Q01DX015 (ip), vehicle: saline 98 % of control | dose: 1.0 mg/kg/injection, schedule: Q01DX009 (ip), vehicle: saline 108 % of control | dose: 1.0 mg/kg/injection, schedule: Q01DX015 (ip), vehicle: saline 104 % of control | dose: 2.0 mg/kg/injection, schedule: Q01DX009 (ip), vehicle: saline 100 % of control | dose: 2.0 mg/kg/injection, schedule: Q01DX015 (ip), vehicle: carboxymethylcellulose (CMC) 96 % of control | dose: 2.0 mg/kg/injection, schedule: Q01DX015 (ip), vehicle: saline 94 % of control and 103 % of control | dose: 3.0 mg/kg/injection, schedule: Q04DX003 (ip), vehicle: saline sonified 93 % of control | dose: 4.0 mg/kg/injection, schedule: Q01DX009 (ip), vehicle: saline 108 % of control | dose: 4.0 mg/kg/injection, schedule: Q01DX015 (ip), vehicle: carboxymethylcellulose (CMC) 93 % of control | dose: 4.0 mg/kg/injection, schedule: Q01DX015 (ip), vehicle: saline 96 % of control | dose: 5.0 mg/kg/injection, schedule: Q01DX015 (ip), vehicle: saline 103 % of control | dose: 6.0 mg/kg/injection, schedule: Q04DX003 (ip), vehicle: saline sonified 103 % of control | dose: 8.0 mg/kg/injection, schedule: Q01DX009 (ip), vehicle: saline 97 % of control | dose: 8.0 mg/kg/injection, schedule: Q01DX015 (ip), vehicle: saline 94 % of control | dose: 10.0 mg/kg/injection, schedule: Q01DX015 (ip), vehicle: saline 91 % of control | [3] 101 % of control | dose: 16.0 mg/kg/injection, schedule: Q04DX003 (ip), vehicle: saline 105 % of control | dose: 25.0 mg/kg/injection, schedule: Q01DX001 (ip), vehicle: saline 117 % of control | [4] 95 % of control | dose: 25.0 mg/kg/injection, schedule: Q04DX003 (ip), vehicle: saline 96 % of control | dose: 50.0 mg/kg/injection, schedule: Q04DX003 (ip), vehicle: saline 87 % of control

COc1cccc(NC(=S)/C(=C(/[O-])c2ccc([N+](=O)[O-])cc2)[n+]2ccccc2)c1
inactive: [5] 97 % of control | [6] 98 % of control | dose: 400.0 mg/kg/injection, schedule: Q01DX009 (ip), vehicle: Klucel (hydroxypropylcellulose) (HPC) 94 % of control

Cc1ccc(COc2ccc(Cl)cc2Cn2ccnc2)cc1
inactive: dose: 100.0 mg/kg/injection, schedule: Q01DX009 (ip), vehicle: saline 102 % of control

Cc1ccc(SSSc2ccc(C)cc2[N+](=O)[O-])c([N+](=O)[O-])c1
inactive: [1] 88 % of control | [2] 88 % of control | dose: 200.0 mg/kg/injection, schedule: Q04DX002 (ip), vehicle: saline with Tween-80 98 % of control

CCC[CH2][Sn]([CH2]CCC)([O]C(C)=O)[O]C(C)=O
inactive: dose: 3.0 mg/kg/injection, schedule: Q01DX009 (ip), vehicle: saline 106 % of control | dose: 6.12 mg/kg/injection, schedule: Q01DX009 (ip), vehicle: saline 101 % of control | [3] 108 % of control | [4] 89 % of control

Oc1ccc(N=Cc2ccccn2)cc1
inactive: [7] 96 % of control | [8] 105 % of control | [9] 98 % of control

CC(C)(C(=Nc1ccccc1)N1CCCCC1)c1ccccc1
inactive: dose: 75.0 mg/kg/injection, schedule: Q01DX001 (ip), vehicle: saline 97 % of control | dose: 150.0 mg/kg/injection, schedule: Q01DX001 (ip), vehicle: saline 94 % of control | dose: 300.0 mg/kg/injection, schedule: Q01DX001 (ip), vehicle: saline 96 % of control

CC(=O)Nc1c(Br)cc2c(c1Br)C(=O)c1ccccc1-2
inactive: [7] 97 % of control | [8] 87 % of control | [9] 97 % of control

CC1CC(=O)C2CC(Cl)CCC2(C)C1C (stereo not given)
inactive: dose: 100.0 mg/kg/injection, schedule: Q04DX003 (ip), vehicle: saline with Tween-80 101 % of control | dose: 150.0 mg/kg/injection, schedule: Q01DX009 (ip), vehicle: Klucel (hydroxypropylcellulose) (HPC) 91 % of control | dose: 225.0 mg/kg/injection, schedule: Q01DX009 (ip), vehicle: Klucel (hydroxypropylcellulose) (HPC) 97 % of control

CCCCCCCCCC(=O)CCCCCCC
inactive: dose: 25.0 mg/kg/injection, schedule: Q01DX009 (ip), vehicle: other 105 % of control | dose: 50.0 mg/kg/injection, schedule: Q01DX009 (ip), vehicle: other 102 % of control | dose: 100.0 mg/kg/injection, schedule: Q01DX009 (ip), vehicle: other 95 % of control and 97 % of control | dose: 400.0 mg/kg/injection, schedule: Q01DX009 (ip), vehicle: other 98 % of control

Oc1ccccc1C=Nc1ccccc1O.[Cu+2]
inactive: dose: 100.0 mg/kg/injection, schedule: Q01DX001 (ip), vehicle: other 107 % of control | dose: 200.0 mg/kg/injection, schedule: Q01DX001 (ip), vehicle: other 116 % of control

CCCC(C)Cc1ccc(C(C)=O)cc1 (stereo not given)
inactive: dose: 50.0 mg/kg/injection, schedule: Q01DX009 (ip), vehicle: Klucel (hydroxypropylcellulose) (HPC) 101 % of control | [5] 106 % of control | [10] 104 % of control | [6] 89 % of control | [11] 105 % of control | dose: 400.0 mg/kg/injection, schedule: Q04DX003 (ip), vehicle: Klucel (hydroxypropylcellulose) (HPC) 105 % of control

Cc1cccc(NC(=O)CCl)c1C
inactive: [5] 100 % of control | [10] 100 % of control | [6] 87 % of control | [11] 100 % of control
